Measured values from US12377063B2, “Combination therapies for managing cancer” (Emory University, priority 2019, dated 2025).

Tests used:
Format in all cases: cell-based
leader cells [1] = assay: Lactate production after alexidine treatment; conditions: alexidine treatment for 24 hours
[2] = tested on: p-PDHS293 in leader cells; assay: p-PDHS293 after alexidine treatment, leader cells; conditions: alexidine treatment for 24 hours
From the text: Alexidine Dihydrochloride Induces Metabolic Reprogramming of Leader Cells Via S293 Phosphorylation of PDH
(§1) Since alexidine inhibits active PDH in leaders and Bay-876 targets GLUT1, the combination of alexidine and Bay-876 to co-target these cellular subtypes, respectively, during collective invasion was examined. To quantitatively determine synergy a combination index analyses was used. […] Importantly, normal lung epithelial cells (HBEC, MRC5) had no synergy at low and moderate doses (FIG. 8A). The effects of Bay-876 plus alexidine on invasion were examined. […] It is also contemplated that one can co-target metabolically heterogeneous populations using the combination of the leader cell targeting agent, alexidine, and the GLUT1 targeting agent, BAY-876 or the glycolytic/PPP activity of followers and OXHOS-driven biology of the leaders in a manor illustrated in the table below.

leader cells [3] = assay: Cell death in leader cells; conditions: after 72 hours
From the text: (§2) Compounds were screened, and it was discovered that most compounds effective at inhibiting lead cells were typically anti-metabolic agents that disrupt OXPHOS. One such compound, alexidine hydrochloride targets mitochondrial function. Leader cells are sensitive to mitochondria-targeting agents as a class.

[4] = tested on: multiple lung and mixed leader:follower lines; assay: Collective invasion of spheroids embedded in Matrigel; conditions: alexidine alone
From the text: Brightfield representative images are shown. Solid lines designate outer perimeter. Scale bar=50 μm.
as §2, §1

[5] = tested on: pPDHS293 in follower cells; assay: pPDHS293 after alexidine treatment, follower cells
follower/leader cells = conditions: leaders vs followers; 72 hrs of treatment; FIG. 3D
H1299 cells = assay: Cell number / viability after verteporfin; conditions: parental H1299 cells; 72 hours; FIG. 7D
Protocol: (§3) To determine how GLUT1 expression in followers could be regulated upstream, signaling alterations that might contribute to altered GLUT1 expression in leaders and followers were evaluated. YAP and TAZ are transcriptional co-activators of TEAD (Hippo signaling) and regulate GLUT1 expression. YAP/TEAD 1-4 members were interrogated. […] Cells were treated with the YAP/TEAD inhibitor, verteporfin, which has promising anti-tumor activity.

[6] = tested on: GLUT1 mRNA expression in followers; assay: GLUT1 mRNA expression by qRT-PCR; conditions: 24 hrs, FIG. 7C
Protocol: as §3

parental H1299 cells = assay: Spheroid invasion assay, parental H1299; conditions: FIG. 7E
Protocol: as §3

For `CCCCC(CC)CNC(=N)NC(=N)NCCCCCCNC(=N)NC(=N)NCC(CC)CCCC` (centres unmarked) [Alexidine, 1,1′-(hexane-1,6-diyl)bis(5-(2-ethylhexyl)biguanidine)], the lactate production (leader cells [1]) was “increased lactate production”, the p-PDHS293 level [2] was “increased p-PDHS293” and the cell death (leader cells [3]) was “no significant amount of cell death”. The “doses decreasing invasiveness relative to doses inducing cell death” value ([4]; earlier time points prior to effect on proliferation) was “doses lower than those that induce cell death”, the collective invasion ([4]; multiple lung cell lines) was “dose-dependent inhibition” and the “impact on pPDHS293” value [5] was “no significant impact”.

`CN(C)C(=N)N=C(N)N` [metformin] was tested, and the “sensitivity of leaders to complex I inhibitors (proliferation)” value (follower/leader cells) was “increased sensitivity”.

For `C/C=C(\C)[C@H](O)[C@H](C)/C=C(C)/C=C/C/C(C)=C/Cc1nc(OC)c(OC)c(O)c1C` [piericidin, piericidin A], the “sensitivity of leaders to complex I inhibitors (proliferation)” value (follower/leader cells) was “increased sensitivity”.

In the case of verteporfin, the “proliferative properties (cell number)” value (H1299 cells) is reported as “significantly reduced”, the “GLUT1 mRNA expression” value [6] is reported as “suppressed GLUT1 mRNA expression in followers in a dose-dependent manner” and the “invasive properties (invasive area)” value (parental H1299 cells) is reported as “significantly reduced”.
